Data published in article PMC11079064, “Discovery of a brain penetrant small molecule antagonist targeting LPA1 receptors to reduce neuroinflammation and promote remyelination in multiple sclerosis” (Scientific Reports, 2024).

Tests used:
[1] = molecular target: T1, human LPA1 (Homo sapiens, UniProt Q92633); experiment: Competitive membrane filter radioligand binding assay; conditions: membranes from cells overexpressing human LPA1, LPA1 selective radioligand
T1 construct: expressed in transfected cells
Protocol: Binding assay: Membranes were prepared from B103 cells stably expressing human LPA1 receptor. Cells were resuspended in a hypotonic buffer containing 0.25 M sucrose/0.2 mM EDTA. After 30 min on ice, cells were centrifuged at 41,415 × g. Membrane pellet was resuspended in 20 mM HEPES, pH 7.4 storage buffer and centrifuged at 41,415 × g. Membranes were resuspended in storage buffer + 1 mM dithiothreitol. Protein was quantified using the DC Protein Assay (Bio-Rad, Hercules, CA), aliquoted, and stored at – 80 °C until assay. A tritiated LPA1 selective antagonist[10] was used as radiolabeled ligand. […] The plates were shaken at 300 rpm for 2 h at room temperature. GF/B plates assay filter plates (Perkin Elmer, Boston, MA, Waltham, MA) were prepared by adding 50 µl of 0.5% polyethylenimine (Millipore Sigma, St. Louis, MO) and incubated at room temperature for > 30 min. The assay was terminated by vacuum filtration (Brandel Harvester). Plates were washed 3 × with 2 ml ice cold buffer containing 50 mM HEPES + 100 mM NaCl + 2 mM EDTA, pH 7.4. Once dry, 50 µl of Betaplate Scintillation Cocktail (Perkin Elmer, Boston, MA) was added to each well. After a 20 min incubation, plates were read on the Perkin Elmer TopCount.

[2] = tested on: rat OPCs; experiment: OPC differentiation assay (PDGF withdrawal, MBP+ oligodendrocytes); format: cell-based; conditions: PDGF removed, 3 days treatment, percent of T3 induced differentiation; read-out: EC50 of increase in differentiated MBP+ oligodendrocytes
Protocol: Given the expression of Lpar1 on OPCs, we wanted to know how direct, exogenous application of LPA would affect OPC differentiation. Using the same PDGF withdrawal paradigm to induce OPC differentiation, we added various concentrations of LPA to the culture media and quantified MBP^+ oligodendrocytes 3 days later.
Primary rat OPCs were isolated and cultured in the presence of PDGF. One day later, PDGF was removed and various doses of PIPE-791 were added to the cultures. These cultures were fixed 3 days post-PIPE-791 treatment and immunostained for MBP.
OPC isolation: For immunopanning purification of OPCs, cortical hemispheres were dissected from postnatal day 8 Sprague–Dawley rat pups. Tissue culture dishes were incubated overnight with goat IgG secondary antibodies to mouse (Jackson Laboratories, Bar Harbor, ME). Dishes were rinsed and incubated at room temperature with primary antibodies for Ran-2, GalC and O4 (gift from Jonah Chan lab). Rodent cortical hemispheres were minced and dissociated with papain (Thermo Fisher, Waltham, MA) for 1 h at 37°. After dissociation, cells were resuspended in a panning buffer (0.2% BSA in DPBS) and incubated at room temperature sequentially on three immunopanning dishes: Ran-2 and GalC were used for negative selection before positive selection with O4. […]

[3] = tested on: human brain meningeal fibroblasts; experiment: LPA-induced activation of human meningeal fibroblasts (COL1+ area); format: cell-based; conditions: LPA stimulation, read-out: IC50 of inhibition of increase in COL1+ area
Protocol: Recent work from Dorrier et al., has implicated persistent fibrotic scarring in the CNS in the mouse EAE model and that the contributing cells were of meningeal origin. […] We cultured primary rat or human brain meningeal fibroblasts and applied 10 µM LPA to induce activation. Upon LPA stimulation, we saw a change in morphology that could be quantified as a change in collagen I (COL1^+) area.
Meningeal fibroblasts were obtained from IxCells (San Diego, CA) and plated at 5000 cells per well according to manufacturer's protocol. […] Cells were stained and imaged as described with rat meningeal fibroblasts.
Supplemental Figure 8. […] A. Rat primary meningeal fibroblasts were isolated and serum starved overnight. […] Cells were fixed and immunostained with a collagen 1a1 antibody (green) and counterstained with Hoechst (blue). […] Cells were fixed and immunostained with a collagen I antibody (green) and counterstained with Hoechst (blue). […] C. […] Collagen 1a1 (green), Hoechst (blue). Scale bar 50 µm. One-way ANOVA with Dunnett’s; * p<0.05, ** p<0.01, *** p<0.001, **** p<0.0001.

[4] = tested on: MOG-EAE mouse model; experiment: MOG-EAE mouse model, g-ratios by electron microscopy; format: in vivo
Protocol: In control, non-EAE mice, 90.9% of the axons were myelinated (g-ratio < 1). In vehicle treated MOG-EAE mice, only 73.4% of axons were myelinated.
Remyelinated axons canonically have thin myelin[41]. As such, we examined axons with g-ratios ≥ 0.8 but less than 1 as a surrogate measure of a remyelinating axon.
To confirm this, g-ratios in the optic nerve were similarly quantified. […] In non-MOG-EAE mice, 86.4% of the axons were myelinated. […] At 0.3 mg/kg, 85.5% were myelinated. When thinly myelinated axons were quantified, 30.2% in the MOG-treated vehicle group were observed, compared to 50.7% in the non-MOG control.
Study termination was the last day that clinical scores were determined for all study animals (Day 24). Since VEP recordings required several days (Days 21–24), oral dosing continued through perfusion, which was performed on Day 24 or Day 25. On Day 24 or 25, and following completion of VEP recordings, mice were deeply anesthetized with isoflurane anesthesia and whole body perfused with EM grade Karnovsky’s fixative (3% glutaraldehyde, 2% paraformaldehyde in 0.1 M phosphate buffer, pH 7.4; part # 15732-10; Electron Microscopy Sciences, Hatfield, PA). Spinal columns and optic nerves were collected and stored in fixative at 4 °C until further processing. After at 3–5 days in fixative, spinal cords were isolated and dissected from the vertebrae. Approximately 2 mm of the most caudal lumbar region was trimmed and segmented and, along with the optic nerves, shipped to Charles River Laboratories (Durham, NC) for processing for and imaging by electron microscopy.
The blocks were polymerized overnight at ~ 85 °C, and semi-thin sections (~ 1 μm, one per tissue) prepared and stained with toluidine blue using standard protocols. Semi-thin images were evaluated, and the most caudal region was identified as the region of focus for thin sections. Thin sections of ~ 100 nm were prepared using standard protocols and the grids were imaged at 1500 × on a JEOL JEM-1400 + transmission electron microscope fitted with an AMT 16 MP digital camera system. The direct magnification used was 1500 × or 4000 × for spinal cord and optic nerve, respectively.
Digital EM images were analyzed using ImageJ (NIH, Bethesda, MD) measure the circumference of the axon and, when present, the myelin sheath, and g-ratios were calculated. For spinal cord analysis, 4 representative images were analyzed per animal and the results pooled, and the percentages calculated from the animal total. For optic nerve analysis, 1 representative image was analyzed per optic nerve and each optic nerve was treated as a separate data point.

T1 sequence (Q92633 whole entry): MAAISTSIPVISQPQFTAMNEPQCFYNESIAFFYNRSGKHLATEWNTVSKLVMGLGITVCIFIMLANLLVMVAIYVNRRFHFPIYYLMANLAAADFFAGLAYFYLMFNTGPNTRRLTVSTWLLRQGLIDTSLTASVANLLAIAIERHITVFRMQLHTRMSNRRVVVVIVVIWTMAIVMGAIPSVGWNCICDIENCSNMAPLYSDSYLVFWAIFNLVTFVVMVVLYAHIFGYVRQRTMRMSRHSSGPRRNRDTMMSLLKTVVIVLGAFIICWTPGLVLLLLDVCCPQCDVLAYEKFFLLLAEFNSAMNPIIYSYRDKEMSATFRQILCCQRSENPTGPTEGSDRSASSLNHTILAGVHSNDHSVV

Structure (SMILES): COc1ccc(NC(=O)N(c2ccccc2C(C)C)C2CCC(C(=O)O)CC2)c(OC(F)F)n1 (stereo not shown) [PIPE-791]
- IC50 [1]: 2.63 nM
- EC50 [2]: 108 nM
- IC50 [3]: 4.5 nM
- myelinated axons, optic nerve ([4]; 0.3 mg/kg): 85.5%
- thinly myelinated axons, optic nerve ([4]; 0.3 mg/kg): 44.7%
- myelinated axons, optic nerve ([4]; 3 mg/kg): 86.1%
- thinly myelinated axons, optic nerve ([4]; 3 mg/kg): 50.6%
